# Source: patent US10517870B2, “Aryl substituted bicycle heteroaryl compounds” (Bristol-Myers Squibb Company, priority 2015, dated 2019)
# Columns and labels:
# Type in all cases: cell-based
# HeLa (HPV18+) cells = assay: Cell proliferation/viability assay, HeLa cells; details: Homo sapiens, 96 h, 4 days
# Experimental: (§1) Caski (catalog number CRL-1550), SiHa (catalog number HTB-35), C33A (catalog number HTB-31), Saos-2 (ATCC HTB-85), and Hela (catalog number CCL-2) cells were obtained from the American Type Culture Collection (ATCC). The human cervical carcinoma cell lines Caski. SiHa, Hela and C33A, and the human osteosarcoma cell line Saos-2, and the human keratinocyte cell line HaCaT were cultured in Dulbecco's Modified Eagle Medium (DMEM, Invitrogen catalog number 11965-092) supplemented with 10% fetal bovine serum. The colorectal carcinoma cell line HCT-116 was cultured in Roswell Park Memorial Institute-1640 Medium (Invitrogen catalog number 11875-093) supplemented with 10% FBS. All cells were incubated at 37° C. in a humidified atmosphere with 5% CO2 in air. To establish the SCHPV-18 cell line, one million primary neonatal human foreskin keratinocytes (Invitrogen, catalog no. C-001-5C), cultured in KBM Gold-keratinocvte cell basal medium (Lonza, catalog no. 192060), were electroporated with 5 μg HPV-18 plasmid DNA (ATCC catalog no. 45152D) using the Amaxa Nucleofector II on setting T-007. Cells were co-transfected with 2 μg plasmid pZSGreen1-N1 (Clontech catalog no. 632448) encoding G418 resistance, and cells were selected for four days in 100 μg/ml G418, after which selection was removed. Cells were maintained in culture six months prior to compound testing. Integration of the HPV 18 genome was confirmed by Southern blot. Control cells transfected in parallel with pZSGreen1-N1 alone became senescent four days after selection and the culture could not be expanded. SCHPV-18 cells were maintained in E medium (Fehrmann F, Laimins L A. Human papillomavirus type 31 life cycle: methods for study using tissue culture models. Methods Mol Biol 2005; 292:317-330).
# (§2) For proliferation assays, cells were plated in white polystyrene 96-well plates (Costar catalog number 3917) for CellTiter Glo viability assays or 96-well special optics plates (Costar cat #3614) for CellTiter Blue viability assays. Cells were plated in the appropriate growth medium without antibiotics. Two hours after cell plating, a 200× compound stock diluted in DMSO was added to a final concentration of 0.5%. Plates were incubated at 37° C., for 4 days and then cell viability was assessed using either CellTiter Blue (Promega catalog number G8081) or CellTiter Glo (Promega catalog number G7572) according to the manufacturer's instructions. For the CellTiter Blue viability assay, data was collected using the SpectraMax Gemini EM (Molecular Devices) with an excitation wavelength of 530 nm and emission wavelength of 590 nm. For the CellTiter Glo viability assay, data was collected using the Envision Mulitlabel Reader (Perkin Elmer catalog number 2104-0010). To calculate IC50 and EC50 values, percent inhibition curves were fit using a four-parameter logistic formula [y=A+[…]], where A and B denote minimal and maximal % inhibition, respectively, C is the IC50 value, D is the Hill slope, and x represents compound concentration.
# (§3) Table C, below, sets out the results obtained employing various compounds of the invention tested for their effects on proliferation of such cells. Caski or SiHa cells, transformed by HPV 16, Hela cells, transformed by HPV 18, or HPV-negative control cell lines (Saos-2 or C33a) were treated with various compounds. […] Unlike the HPV-negative Saos-2 or C33a cell lines, the HPV-transformed cell lines rely on the presence of HPV for their continued proliferation. Therefore, a comparison of IC50 values from HPV-transformed cell lines with IC50 values obtained from HPV-negative cell lines can be used to test for compound selectivity.
# [1] = tested on: platelet aggregation induced by gamma-thrombin; assay: Gamma thrombin induced platelet aggregation assay in platelet rich plasma (PRP); details: human platelet rich plasma
# Source text: The compounds of the current invention can be tested in vitro for their ability to inhibit platelet aggregation induced by gamma-thrombin as shown in Example C. Gamma-thrombin, a proteolytic product of alpha-thrombin which no longer interacts with PAR1, selectively cleaves and activates PAR4 (Soslau, G. et al., “Unique pathway of thrombin-induced platelet aggregation mediated by glycoprotein Ib”, J. Biol. Chem., 276:21173-21183 (2001)). Platelet aggregation can be monitored in a 96-well microplate aggregation assay format or using standard platelet aggregometer. […]
# The ability of the compounds of the current invention to inhibit platelet aggregation induced by gamma-thrombin was tested in a 96-well microplate aggregation assay format. […] The plate was then placed into a SpcctraMax® Plus Plate Reader (Molecular Devices) at 37° C. Platelet aggregation was monitored at a wavelength of 405 nm using a kinetic analysis mode. […] Inhibition of platelet aggregation (IPA) was calculated based on the formula: % IPA=(100−100*[ODcompound−ODminimum]/[ODmaximum−ODminimum]). The IC50 value of the test compound was calculated by fitting the % IPA values to the one-site concentration response equation: Y=A+(B−A)/{1+(C/X)^D]}, using XLfit for 32 bit Excel® Version 2 Build 30 (ID Business Solutions Limited).
# C33A (HPV−) cells = assay: Cell proliferation/viability assay, C33A cells; details: Homo sapiens, C-33-A, 96 h, read-out: C33A (HPV−) Proliferation IC50 (μM)
# Experimental: as §1, §2, §3
compound,measurement,setting,value
"COc1ccc(-c2cc(C)cc3nc(OC(F)F)cnc23)cc1 [Example 6, 2-(difluoromethoxy)-5-(4-methoxyphenyl)-7-methylquinoxaline]",IC50,HeLa (HPV18+) cells,10.6 µM
same,IC50,[1],> 30 µM
same,IC50,C33A (HPV−) cells,44.8 µM
